# Where two headings read alike, the source gives them in different places.
# Assays:
# [1] = tested on: tight junctions (ZO-1, ZO-2, claudin-1) in Caco-2 cells; test: Tight junction-associated proteins and structure (WB, IFA); format: cell-based, Human; details: Wa or SA11 MOI = 3, 100 nM
# Protocol: The cells were then washed with PBS, fixed in 4% paraformaldehyde for 20 min, followed by permeabilization in 0.5% Triton X-100 for 10 min and blocking with 5% BSA (Beyotime, China) for 1 h at room temperature. The cells were then incubated with rabbit anti-ZO-1 monoclonal antibody (CST, USA) (1:100) or rabbit anti-RV VP6 polyclonal antibodies (CUSABIO, China) (1:50) for 2 h at room temperature, washed twice with PBS, and incubated with Cy3-conjugated goat anti-rabbit antibodies (Beyotime, China) (1:500) for 1 h at room temperature. In some experiments, the cells were also stained with FITC-conjugated goat anti-RV antibodies (Virostat, USA) (1:100) for 1 h at room temperature and followed by 5 µg/mL 2-(4-amidinophenyl)-6-indolecarbamidine dihydrochloride (DAPI) (Sigma-Aldrich, USA) staining for 10 min. […] Minimal post-processing (image cropping and annotations) was applied through Adobe Illustrator 2019 (Adobe Systems, USA) to ensure readability. […]
# MA104, Caco-2, and HT-29 cells were mock-infected with PBS, infected with RV Wa or SA11 strains (MOI = 3), or treated with 1 µM C16-PAF (C16) for 1 h. […] After protein quantification with a BCA kit (Beyotime, China), the protein samples were mixed with 25 µL 5× SDS loading buffer (Beyotime, China), boiled at 100°C for 5 min, chilled on ice, vortexed for seconds, and centrifuged at 12,000 × g for 3 min at room temperature. […]
# RV Wa (G1P[8]) strain = test: In vitro assay of RV replication inhibition (PFA); format: cell-based, Rotavirus; details: MOI = 1, 24 h p.i., PFA, read-out: IC50
# Protocol: For analysis of effects of different […] on RV replication in vitro, 10,000 MA104 cells, 30,000 Caco-2 cells, and 80,000 HT-29 cells in 100 µL complete DMEM medium were seeded in 96-well plates and cultured at 37°C and 5% CO2 for 24 h. Then the cells were infected with RV Wa or SA11 strains (MOI = 1 (PFU/cell)) for 1 h. After removing the viruses and washing cells two times with DMEM, 100 µL DMEM containing the indicated concentrations of drugs was added to each well, and the plates were incubated at 37°C and 5% CO2. At 24 h p.i., the infected cells and culture medium were collected, frozen/thawed twice, and subjected to centrifugation at 1,000 × g for 3 min at room temperature. Then, the supernatant was subjected to analysis of viral load by PFA. […] Dose-response data (drug concentrations as x-axis and normalized inhibition percentages as y-axis) were fitted to a dose-response inhibition model ([Inhibitor] vs normalized response – Variable slope). […] Model adequacy was validated using goodness-of-fit metrics (R^2 ≥ 0.95), 95% confidence intervals, and residual distribution analysis.
# Wa/SA11 strains were titrated by PFA, which was carried out as described (3) with some modification. Briefly, confluent monolayers of MA104 cells in 24-well tissue culture plates were infected with 100 µL supernatants containing infectious RV particles which were serially diluted (10^1, 10^2, 10^3, and 10^4) with DMEM containing 1 µg/mL trypsin and penicillin (10,000 U/mL)-streptomycin (5 µg/mL) (DMEM-T) for 1 h at 37°C. Then 400 µL agarose overlay (0.8% agarose in 1×DMEM-T) was added and the plates were incubated at 37℃ and 5% CO2 for 5 days. The cells in each well were fixed by 1 mL 4% paraformaldehyde (Sangon Biotech, China) overnight (> 12 h) at room temperature. Then, the paraformaldehyde and agarose were removed and the monolayers were stained with 0.5 ml of a 1% (v/v) crystal violet (Sangon Biotech, China) diluted in distilled water for 10 min at room temperature. Then, the plates were drained and dried, and the plaques were enumerated. As the EDIM strain is not able to grow in cell culture, it was titrated by qPCR analysis as described (4) with EDIM VP6 gene as the target.
smiles,measurement,setting,value
COc1cccc(-c2cc(F)ccc2[C@H]2Cc3nc(N)nc(C)c3C(=O)N2)n1 [NVP-HSP990],structural disruption of tight junctions in RV infection,"[1]; 18 h, ZO-1 immunostaining",effectively restored
same,"expression of tight junction-associated proteins ZO-1, ZO-2, and claudin-1","[1]; 20 h, WB",facilitated the expression
same,IC50,RV Wa (G1P[8]) strain; Wa strain in Caco-2 cells,4 ± 1.28 nM
same,IC50,RV Wa (G1P[8]) strain; Wa strain in HT-29 cells,4.69 ± 0.9 nM
same,IC50,RV Wa (G1P[8]) strain; Wa strain in MA104 cells,0.96 ± 0.13 nM

# Source: article PMC12817916, “A small-molecule HSP90 inhibitor, NVP-HSP990, alleviates rotavirus infection” (Journal of Virology, 2025)
